The values below come from US10184137B2, “Method of producing isoprene monomer” (AJINOMOTO CO., INC., priority 2014, dated 2019).

The target in experiment [1] is T1, Methanocella paludicola mevalonate kinase (mpd), wild type, SEQ ID NO:1, N-terminal His-tag (Methanocella paludicola, UniProt D1YZ39). The experiment can be described thus: Inhibition of mpd-derived mevalonate kinase by DMAPP, GPP, FPP or DPM. Type of experiment: biochemical. The following applies: 1 mM DPM, control 0.148. As for the experimental part:
(§1) Km value was calculated by Lineweaver-Burk plot.
(§2) Since GPP and FPP solutions contain methanol, methanol which was needed to keep the same methanol level at the addition to the reaction system was added to the reaction solution, which was designated as control.
(§3) Effect of 1 mM diphosphomevalonate (DPM) on each enzyme was also studied.

In experiment [2] the target is T2, Methanosarcina mazei mevalonate kinase (mma), wild type, SEQ ID NO:12, N-terminal His-tag (Methanosarcina mazei, UniProt Q8PW39).
T2 sequence (Q8PW39 1-301): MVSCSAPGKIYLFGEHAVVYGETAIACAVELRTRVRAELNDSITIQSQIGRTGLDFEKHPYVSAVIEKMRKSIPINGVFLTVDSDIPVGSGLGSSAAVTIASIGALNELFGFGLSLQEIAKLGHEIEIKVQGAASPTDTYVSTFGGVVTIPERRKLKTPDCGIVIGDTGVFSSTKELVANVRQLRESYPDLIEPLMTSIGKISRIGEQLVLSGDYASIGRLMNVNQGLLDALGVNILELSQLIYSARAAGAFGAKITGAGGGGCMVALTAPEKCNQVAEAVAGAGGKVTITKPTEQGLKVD
Kind of experiment: Inhibition of mma-derived mevalonate kinase by DMAPP, GPP, FPP or DPM. Format: biochemical. How it is done: as §1, §2, §3

For experiment [3], the target named is T3, Nitrosopumilus maritimus mevalonate kinase (nmr), wild type, SEQ ID NO:9, N-terminal His-tag (Nitrosopumilus maritimus, UniProt A9A427). The experiment can be described thus: Examination of product inhibition on nmr-derived mevalonate kinase. Format: biochemical. The following applies: reaction on 1 mM mevalonate.
T3 sequence (A9A427 1-313): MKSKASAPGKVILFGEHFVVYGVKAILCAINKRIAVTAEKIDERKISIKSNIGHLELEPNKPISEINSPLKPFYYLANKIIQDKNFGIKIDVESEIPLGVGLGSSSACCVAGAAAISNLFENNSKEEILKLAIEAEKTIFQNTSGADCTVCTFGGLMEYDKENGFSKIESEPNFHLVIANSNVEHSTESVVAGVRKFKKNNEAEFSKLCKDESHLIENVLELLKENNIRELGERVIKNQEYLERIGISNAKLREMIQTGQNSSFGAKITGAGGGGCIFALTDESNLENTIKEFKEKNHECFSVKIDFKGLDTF
Experiment [4] concerns the target Corynebacterium variabile mevalonate kinase (cva), wild type, SEQ ID NO:3, N-terminal His-tag (Corynebacterium variabile, UniProt A0A0X2NLH5). Kind of experiment: Inhibition of cva-derived mevalonate kinase by DMAPP, GPP, FPP or DPM. Format: biochemical. The following applies: 1 mM DPM, control 0.073275. As for the experimental part: as §1, §2, §3
The target in experiment [5] is T4, Saccharomyces cerevisiae mevalonate kinase (sce, ERG12), wild type, NP_013935.1, N-terminal His-tag (Saccharomyces cerevisiae, UniProt P07277).
T4 construct: His-tag (N); made in house; host or cells: E. coli BL21(DE3)
T4 sequence (P07277 1-443): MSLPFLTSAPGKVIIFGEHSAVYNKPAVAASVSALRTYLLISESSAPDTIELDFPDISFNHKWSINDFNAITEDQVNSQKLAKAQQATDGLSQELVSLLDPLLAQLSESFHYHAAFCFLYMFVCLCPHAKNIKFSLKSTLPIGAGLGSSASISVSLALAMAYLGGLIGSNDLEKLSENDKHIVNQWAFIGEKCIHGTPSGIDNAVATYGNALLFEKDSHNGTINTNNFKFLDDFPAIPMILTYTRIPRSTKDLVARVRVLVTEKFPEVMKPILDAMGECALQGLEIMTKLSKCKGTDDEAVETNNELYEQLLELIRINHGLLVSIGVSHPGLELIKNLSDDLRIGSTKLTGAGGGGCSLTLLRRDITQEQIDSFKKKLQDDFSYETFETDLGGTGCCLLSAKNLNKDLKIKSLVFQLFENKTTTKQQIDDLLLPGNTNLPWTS
The experiment can be described thus: Inhibition of sce-derived mevalonate kinase by DMAPP, GPP, FPP or DPM. Particulars: control 0.1028. Format: biochemical. How it is done:
as §1, §2, §3

For experiment [6], the target named is T3, Nitrosopumilus maritimus mevalonate kinase (nmr), wild type, SEQ ID NO:9, N-terminal His-tag. The experiment can be described thus: Inhibition of nmr-derived mevalonate kinase by DMAPP, GPP, FPP or DPM. Particulars: 1 mM DPM, control 0.2064. Type of experiment: biochemical. How it is done:
as §1, §2, §3

The target of experiment [7] is T5, Methanosaeta concilii mevalonate kinase (mcl), wild type, SEQ ID NO:6, N-terminal His-tag (Methanothrix soehngenii, UniProt F4BZB3).
T5 sequence (F4BZB3 1-317): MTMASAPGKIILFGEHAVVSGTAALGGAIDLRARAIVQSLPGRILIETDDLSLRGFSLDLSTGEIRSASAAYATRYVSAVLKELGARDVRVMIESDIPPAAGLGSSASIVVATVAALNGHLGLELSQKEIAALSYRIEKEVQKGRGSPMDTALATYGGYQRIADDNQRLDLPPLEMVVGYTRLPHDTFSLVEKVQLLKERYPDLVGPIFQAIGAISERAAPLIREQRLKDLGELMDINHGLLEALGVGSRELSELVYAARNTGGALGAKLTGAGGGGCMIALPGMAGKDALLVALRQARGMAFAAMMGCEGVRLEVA
The experiment can be described thus: Inhibition of mcl-derived mevalonate kinase by DMAPP, GPP, FPP or DPM. Format: biochemical. The following applies: mcl; 1 mM DPM; control 0.1373. How it is done:
as §1, §2, §3

In experiment [8] the target is T1, Methanocella paludicola mevalonate kinase (mpd), wild type, SEQ ID NO:1, N-terminal His-tag. Kind of experiment: Km and kcat of mevalonate kinase (mpd-derived). Particulars: compared with the other enzymes.
Description: (§4) Each obtained plasmid was used for transformation of E. coli BL21(DE3). […] When OD600 reached approximately 0.5, 0.1 mM IPTG (for cva, mma, nmr, and sce) or 1 mM (for mcl and mpd) of IPTG was added, and then the mixture was kept at 20° C. overnight to induce the target protein. […] After centrifugation (28,000×g, 30 min), the supernatant was adsorbed onto His-Trap HP (GE Healthcare) to elute the target protein by linear concentration gradient of Imidazol (final concentration 0.5 M). Obtained protein was dialyzed by using an external solution composed of 20 mM Tris-HCl (pH 8.0) containing 1 mM DTT and 50 mM NaCl. Dialyzed protein was designated as purified enzyme. Protein quantity was measured with Bio-RAD protein assay kit and BSA standard condition.
(§5) Decrease in absorbance at 340 nm at 30° C. was measured to determine the enzyme activity. JASCO Corporation's spectrophotometer (V-650) was used in this study. […] Km value was calculated by Lineweaver-Burk plot.
Experiment [9] deals with T5, Methanosaeta concilii mevalonate kinase (mcl), wild type, SEQ ID NO:6, N-terminal His-tag. The experiment can be described thus: Km and kcat of mevalonate kinase (mcl-derived). The following applies: compared with the other enzymes.
Description: as §4, §5

Counter-ions that a name gives are not always drawn.

T1 sequence (D1YZ39 entry or part of it): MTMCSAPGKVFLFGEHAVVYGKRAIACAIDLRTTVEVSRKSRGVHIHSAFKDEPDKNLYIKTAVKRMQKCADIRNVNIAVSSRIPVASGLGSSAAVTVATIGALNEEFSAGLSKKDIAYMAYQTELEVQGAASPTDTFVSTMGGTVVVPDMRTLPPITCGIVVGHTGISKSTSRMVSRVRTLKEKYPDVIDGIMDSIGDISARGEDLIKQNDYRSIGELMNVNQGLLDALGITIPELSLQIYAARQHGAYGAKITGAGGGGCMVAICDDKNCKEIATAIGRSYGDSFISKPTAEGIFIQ
Corynebacterium variabile mevalonate kinase (cva), wild type, SEQ ID NO:3, N-terminal His-tag, sequence (A0A0X2NLH5 entry or part of it): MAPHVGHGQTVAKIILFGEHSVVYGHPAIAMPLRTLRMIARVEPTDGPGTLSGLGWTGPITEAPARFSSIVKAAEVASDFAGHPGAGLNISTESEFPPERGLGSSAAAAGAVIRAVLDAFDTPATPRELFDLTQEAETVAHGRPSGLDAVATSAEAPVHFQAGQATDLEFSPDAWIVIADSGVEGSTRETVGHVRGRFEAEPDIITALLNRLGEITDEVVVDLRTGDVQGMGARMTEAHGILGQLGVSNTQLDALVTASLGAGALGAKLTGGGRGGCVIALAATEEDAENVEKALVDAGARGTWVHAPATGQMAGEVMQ

Turning to `CC(O)(CCOP(=O)(O)OP(=O)(O)O)CC(=O)O` (racemic) [DPM, (±)-mevalonic acid 5-diphosphate tetralithium salt], the “Enzyme activity with 1 mM DPM” value is recorded as 0.156 dABS/min in [1]; 0.1368 dABS/min in experiment [2] (1 mM DPM, control 0.1604); 0.07555 dABS/min in [4]; 0.0984 dABS/min in [5]; 0.2 dABS/min in experiment [6]; 0.1353 dABS/min in experiment [7]. For the same compound, the “Inhibition by DPM” value in experiment [2] (1 mM diphosphomevalonate) is “Slight inhibitory activity”. In experiment [3], the “DPM-induced inhibition” value is given as “inhibition is not observed”.
Turning to `Nc1ncnc2c1ncn2[C@@H]1O[C@H](COP(=O)(O)OP(=O)(O)OP(=O)(O)O)[C@@H](O)[C@H]1O` [ATP], the “Affinity” value in [8] and in experiment [9] was “higher affinity” in each case.
